Data as given in patent US11845760B2, “PRMT5 inhibitors” (AMGEN INC., priority 2020, dated 2023).
Like-named read-outs stand apart in the source and are kept apart here.

What was measured:
HCT116 MTAP null cells = assay: HCT116 MTAP null cell line proliferation (CellTiter-Glo cell viability, 6 days); assay type: cell-based; details: read-out: HCT-116 MTAP null IC50
Procedure, shortened: (§1)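 Isogenic HCT116 pair (parent and MTAP double-allele knockout) in RPMI 1640 + 10% FBS, exposed 6 days to compound: 8–9-point 1:3 dilutions from 1 or 10 μM top, or 22-point 1:2 dilutions from 10 or 50 μM top. CellTiter-Glo luminescence; IC50 from sigmoidal fit (Hill −1) or 4-parameter logistic.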

HCT116 WT cells = assay: HCT116 WT cell line proliferation (CellTiter-Glo cell viability, 6 days); assay type: cell-based; details: read-out: HCT-116 WT IC50
Procedure, shortened: as §1

[1] = HCT116-MTAP null, 144 h, HCT116 MTAP null cells, 6 days of treatment, CellTiter-Glo cell viability
[2] = Homo sapiens, HCT-116, 144 h, HCT116 WT (parent) cells, 6 days of treatment, CellTiter-Glo cell viability
[3] = HCT116 MTAP null cells, 6 days of treatment, CellTiter-Glo cell viability
[4] = HCT116 WT (parent) cells, 6 days of treatment, CellTiter-Glo cell viability

| IC50 (HCT116 MTAP null cells; [1]) | IC50 (HCT116 WT cells; [2]) | SMILES | also measured |
| --- | --- | --- | --- |
| 28 nM | 1100 nM | C[C@@H]1COC[C@H](c2ccc(OC(F)F)nn2)N1C(=O)c1cc2c3c(c(N)nc2cn1)COC3 [Example 554, (4-amino-1,3-dihydrofuro[3,4-c][1,7]naphthyridin-8-yl)((3S,5R)-3-(6-(difluoromethoxy)-3-pyridazinyl)-5-methyl-4-morpholinyl)methanone] | – |
| – | – | CC1OCc2c1c(N)nc1cnc(C(=O)N3C(C)COCC3c3ccc(OC(F)(F)F)cc3F)cc21 (mixture of isomers) [Example 330, ((3S)-4-amino-3-methyl-1,3-dihydrofuro[3,4-c][1,7]naphthyridin-8-yl)((3R,5S)-3-(2-fluoro-4-(trifluoromethoxy)phenyl)-5-methyl-4-morpholinyl)methanone and ((3S)-4-amino-3-methyl-1,3-dihydrofuro[3,4-c][1,7]naphthyridin-8-yl)((3S,5R)-3-(2-fluoro-4-(trifluoromethoxy)phenyl)-5-methyl-4-morpholinyl)methanone] | IC50 (HCT116 MTAP null cells; [3]): 403 nM; IC50 (HCT116 WT cells; [4]): 20900 nM |
| 73 nM | 3390 nM | CCOc1ccc(C2COCCN2C(=O)c2cc3c4c(c(N)nc3cc2Cl)COC4)nn1 (racemic) [Example 391, (4-amino-7-chloro-1,3-dihydrofuro[3,4-c]quinolin-8-yl)((3R)-3-(6-ethoxy-3-pyridazinyl)-4-morpholinyl)methanone and (4-amino-7-chloro-1,3-dihydrofuro[3,4-c]quinolin-8-yl)((3S)-3-(6-ethoxy-3-pyridazinyl)-4-morpholinyl)methanone] | – |
| 8 nM | 151 nM | C[C@@H]1COC[C@H](c2ccc(C(F)(F)F)cn2)N1C(=O)c1cc2c(cc1F)nc(N)c1c2cnn1C [Example 517, (4-amino-7-fluoro-3-methyl-3H-pyrazolo[3,4-c]quinolin-8-yl)((3R,5S)-3-methyl-5-(5-(trifluoromethyl)-2-pyridinyl)-4-morpholinyl)methanone] | – |
| 764 nM | 318 nM | N#Cc1cnc(C2COCCN2C(=O)c2ccc3nc(N)c4c(c3c2)COC4)cc1Cl (racemic) [Example 492, 4-chloro-6-[rac-(3S)-4-(4-amino-1,3-dihydrofuro[3,4-c]quinoline-8-carbonyl)morpholin-3-yl]pyridine-3-carbonitrile] | – |
| 86 nM | 4690 nM | Cn1ncc2c3cc(C(=O)N4CCOC[C@@H]4c4ccc(C(F)(F)F)cc4)c(F)cc3nc(N)c21 [Example 518, (4-amino-7-fluoro-3-methyl-3H-pyrazolo[3,4-c]quinolin-8-yl)((3S)-3-(4-(trifluoromethyl)phenyl)-4-morpholinyl)methanone] | – |
| 61 nM | 2530 nM | Nc1nc2cnc(C(=O)N3CCOC[C@@H]3c3ccc(OC(F)(F)F)cc3)cc2c2c1COC2 [Example 506, (4-amino-1,3-dihydrofuro[3,4-c][1,7]naphthyridin-8-yl)-[(3S)-3-[4-(trifluoromethoxy)phenyl]morpholin-4-yl]methanone] | – |
| – | – | Nc1nc2cnc(C(=O)N3CC[S+]([O-])C[C@@H]3c3ccc(C(F)(F)F)cc3)cc2c2c1COC2 (stereo partly drawn) [Example 623, (4-Amino-1,3-dihydrofuro[3,4-c][1,7]naphthyridin-8-yl)((3S)-1-oxido-3-(4-(trifluoromethyl)phenyl)thiomorpholino)methanone] | IC50 (HCT116 MTAP null cells; HCT116-MTAP null, 144 h): 843 nM; IC50 (HCT116 WT cells; Homo sapiens, HCT-116, 144 h): 25700 nM |
| 93 nM | 4960 nM | CCOc1ccc([C@@H]2COC[C@H](C)N2C(=O)c2ccc3nc(N)c4c(c3c2)CO[C@@H]4C)nn1 (racemic) [Example 321, ((3R)-4-amino-3-methyl-1,3-dihydrofuro[3,4-c]quinolin-8-yl)((3R,5S)-3-(6-ethoxy-3-pyridazinyl)-5-methyl-4-morpholinyl)methanone and ((3R)-4-amino-3-methyl-1,3-dihydrofuro[3,4-c]quinolin-8-yl)((3S,5R)-3-(6-ethoxy-3-pyridazinyl)-5-methyl-4-morpholinyl)methanone] | – |
| 653 nM | 33300 nM | Nc1nc2cc(F)c(C(=O)N3CC(c4ccc(C(F)(F)F)cn4)C3)cc2c2c1COC2 [Example 423, (4-amino-7-fluoro-1,3-dihydrofuro[3,4-c]quinolin-8-yl)(3-(5-(trifluoromethyl)-2-pyridinyl)-1-azetidinyl)methanone] | – |
| 29 nM | 1220 nM | C[C@H]1COC[C@@H](c2ccc(OC(F)(F)F)cn2)N1C(=O)c1ccc2nc(N)c3c(c2c1)COC3 (racemic) [Example 376, (4-amino-1,3-dihydrofuro[3,4-c]quinolin-8-yl)((3R,5S)-3-methyl-5-(5-(trifluoromethoxy)-2-pyridinyl)-4-morpholinyl)methanone and (4-amino-1,3-dihydrofuro[3,4-c]quinolin-8-yl)((3S,5R)-3-methyl-5-(5-(trifluoromethoxy)-2-pyridinyl)-4-morpholinyl)methanone] | – |
| 72 nM | 6140 nM | Nc1nc2cnc(C(=O)N3CCOC[C@@H]3c3ncc(Br)cc3F)cc2c2c1COC2 (single isomer, unassigned) [Example 459] | – |
| 64 nM | 3160 nM | CCOc1ccc([C@H]2COC[C@@H](C)N2C(=O)c2cc3c4c(c(N)nc3cn2)COC4)nn1 [Example 535, (4-amino-1,3-dihydrofuro[3,4-c][1,7]naphthyridin-8-yl)((3S,5R)-3-(6-ethoxy-3-pyridazinyl)-5-methyl-4-morpholinyl)methanone] | – |
| 1100 nM | 36600 nM | Cn1ncc2c3cc(C(=O)N4CCOCC4c4ccc(C(F)(F)F)cn4)ccc3nc(N)c21 (racemic) [Example 499, (4-amino-3-methyl-3H-pyrazolo[3,4-c]quinolin-8-yl)((3R)-3-(5-(trifluoromethyl)-2-pyridinyl)-4-morpholinyl)methanone and (4-amino-3-methyl-3H-pyrazolo[3,4-c]quinolin-8-yl)((3S)-3-(5-(trifluoromethyl)-2-pyridinyl)-4-morpholinyl)methanone] | – |
| 866 nM | > 10000 nM | Nc1nc2cnc(C(=O)N3CCCOC[C@@H]3c3ccc(C(F)(F)F)cc3)cc2c2c1COC2 (single isomer, unassigned) [Example 597, (4-amino-1,3-dihydrofuro[3,4-c][1,7]naphthyridin-8-yl)((3S)-3-(4-(trifluoromethyl)phenyl)-1,4-oxazepan-4-yl)methanone or (4-amino-1,3-dihydrofuro[3,4-c][1,7]naphthyridin-8-yl)((3R)-3-(4-(trifluoromethyl)phenyl)-1,4-oxazepan-4-yl)methanone] | – |
| – | – | Nc1nc2cc(F)c(C(=O)N3CCOCC3c3ccnc(C(F)(F)F)c3)cc2c2c1COC2 (racemic) [Example 352, (4-amino-7-fluoro-1,3-dihydrofuro[3,4-c]quinolin-8-yl)((3R)-3-(2-(trifluoromethyl)-4-pyridinyl)-4-morpholinyl)methanone and (4-amino-7-fluoro-1,3-dihydrofuro[3,4-c]quinolin-8-yl)((3S)-3-(2-(trifluoromethyl)-4-pyridinyl)-4-morpholinyl)methanone] | IC50 (HCT116 MTAP null cells; [3]): 717 nM; IC50 (HCT116 WT cells; [4]): 20700 nM |
| 30 nM | 1810 nM | Nc1nc2cc(F)c(C(=O)N3CCOC[C@@H]3c3ncc(Br)cc3F)cc2c2c1COC2 (single isomer, unassigned) [Example 460] | – |
| 380 nM | 32000 nM | C[C@H]1OCc2c1c(N)nc1ccc(C(=O)N3CC(c4ccccc4)C4COCCC43)cc21 (stereo partly drawn) [Example 397, ((3R)-4-amino-3-methyl-1,3-dihydrofuro[3,4-c]quinolin-8-yl)(3-phenylhexahydropyrano[4,3-b]pyrrol-1(4H)-yl)methanone] | – |
| 357 nM | 8480 nM | C[C@H]1CN(C(=O)c2ccc3nc(N)c4c(c3c2)COC4)[C@@H](c2ccc(C(F)(F)F)cn2)CO1 (single isomer, unassigned) [Example 575] | – |
| 871 nM | 13200 nM | Nc1nc2ccc(C(=O)N3CCOCC3c3ccc(F)c(OC(F)(F)F)c3)cc2c2c1COC2 (racemic) [Example 341, (4-amino-1,3-dihydrofuro[3,4-c]quinolin-8-yl)((3R)-3-(4-fluoro-3-(trifluoromethoxy)phenyl)-4-morpholinyl)methanone and (4-amino-1,3-dihydrofuro[3,4-c]quinolin-8-yl)((3S)-3-(4-fluoro-3-(trifluoromethoxy)phenyl)-4-morpholinyl)methanone] | – |
| 725 nM | 20800 nM | Nc1nc2cc(F)c(C(=O)N3CCC(c4ccc(C(F)(F)F)cn4)C3)cc2c2c1COC2 (racemic) [Example 412, (4-amino-7-fluoro-1,3-dihydrofuro[3,4-c]quinolin-8-yl)((3R)-3-(5-(trifluoromethyl)-2-pyridinyl)-1-pyrrolidinyl)methanone and (4-amino-7-fluoro-1,3-dihydrofuro [3,4-c]quinolin-8-yl)((3S)-3-(5-(trifluoromethyl)-2-pyridinyl)-1-pyrrolidinyl)methanone] | – |
| 37 nM | 1110 nM | C[C@H]1OCc2c1c(N)nc1ccc(C(=O)N3[C@@H](C)COC[C@H]3c3ccc(OC(F)(F)F)cn3)cc21 (racemic) [Example 377, ((3R)-4-amino-3-methyl-1,3-dihydrofuro[3,4-c]quinolin-8-yl)((3R,5S)-3-methyl-5-(5-(trifluoromethoxy)-2-pyridinyl)-4-morpholinyl)methanone and ((3R)-4-amino-3-methyl-1,3-dihydrofuro[3,4-c]quinolin-8-yl)((3S,5R)-3-methyl-5-(5-(trifluoromethoxy)-2-pyridinyl)-4-morpholinyl)methanone] | – |
